Results taken from the supplement of paper PMC10307832.

Legend:
Experiment in all cases: relative viability (nuclei count vs DMSO), 5 days (fraction); higher = more cells survive
NCI-H838 = test system: NCI-H838
Method in brief: (§1)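 Values are medians from duplicate plates. Each reflects relative viability, defined as the nuclei count of treated wells over that of vehicle wells. Lung cancer cell lines in 1536-well plates were pin-tool dosed one day after seeding with one drug alone or with a fixed anchor-drug dose plus five library-drug doses (not always all listed) in √10 steps, then fixed, stained and imaged at 4× after 5 days.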

NCI-H520 = test system: NCI-H520
Method in brief: as §1

H3255 = test system: H3255
Method in brief: as §1

NCI-H2405 = test system: NCI-H2405
Method in brief: as §1

EPLC-272H = test system: EPLC-272H
Method in brief: as §1

HCC-827 = test system: HCC-827
Method in brief: as §1

NCI-H1395 = test system: NCI-H1395
Method in brief: as §1

NCI-H2087 = test system: NCI-H2087
Method in brief: as §1

NCI-H1651 = test system: NCI-H1651
Method in brief: as §1

EMC-BAC-2 = test system: EMC-BAC-2
Method in brief: as §1

NCI-H2085 = test system: NCI-H2085
Method in brief: as §1

NCI-H1793 = test system: NCI-H1793
Method in brief: as §1

LCLC-103H = test system: LCLC-103H
Method in brief: as §1

SK-MES-1 = test system: SK-MES-1
Method in brief: as §1

NCI-H650 = test system: NCI-H650
Method in brief: as §1

NCI-H1944 = test system: NCI-H1944
Method in brief: as §1

ChaGo-K-1 = test system: ChaGo-K-1
Method in brief: as §1

LU99A = test system: LU99A
Method in brief: as §1

HCC-44 = test system: HCC-44
Method in brief: as §1

NCI-H2023 = test system: NCI-H2023
Method in brief: as §1

COR-L23 = test system: COR-L23
Method in brief: as §1

Structure (SMILES): COc1nc(C)cnc1NS(=O)(=O)c1cccnc1-c1ccc(-c2nnco2)cc1 [Zibotentan] + CC(=O)c1c(C)c2cnc(Nc3ccc(N4CCNCC4)cn3)nc2n(C2CCCC2)c1=O [Palbociclib] (partner 0.5 µM)
- relative viability (NCI-H838; first compound 0.08 µM): 0.227
- relative viability (NCI-H838; first compound 0.253 µM): 0.207
- relative viability (NCI-H838; first compound 0.8 µM): 0.191
- relative viability (NCI-H838; first compound 2.53 µM): 0.233
- relative viability (NCI-H520; first compound 0.08 µM): 0.219
- relative viability (NCI-H520; first compound 0.253 µM): 0.208
- relative viability (NCI-H520; first compound 0.8 µM): 0.208
- relative viability (NCI-H520; first compound 2.53 µM): 0.248
- relative viability (H3255; first compound 0.08 µM): 0.317
- relative viability (H3255; first compound 0.253 µM): 0.318
- relative viability (H3255; first compound 0.8 µM): 0.355
- relative viability (H3255; first compound 2.53 µM): 0.283
- relative viability (NCI-H2405; first compound 0.08 µM): 0.544
- relative viability (NCI-H2405; first compound 0.253 µM): 0.546
- relative viability (NCI-H2405; first compound 0.8 µM): 0.544
- relative viability (NCI-H2405; first compound 2.53 µM): 0.55
- relative viability (EPLC-272H; first compound 0.08 µM): 0.348
- relative viability (EPLC-272H; first compound 0.253 µM): 0.246
- relative viability (EPLC-272H; first compound 0.8 µM): 0.366
- relative viability (EPLC-272H; first compound 2.53 µM): 0.33
- relative viability (HCC-827; first compound 0.08 µM): 0.437
- relative viability (HCC-827; first compound 0.253 µM): 0.49
- relative viability (HCC-827; first compound 0.8 µM): 0.454
- relative viability (HCC-827; first compound 2.53 µM): 0.487
- relative viability (NCI-H1395; first compound 0.08 µM): 0.653
- relative viability (NCI-H1395; first compound 0.253 µM): 0.618
- relative viability (NCI-H1395; first compound 0.8 µM): 0.614
- relative viability (NCI-H1395; first compound 2.53 µM): 0.654
- relative viability (NCI-H2087; first compound 0.08 µM): 0.221
- relative viability (NCI-H2087; first compound 0.253 µM): 0.263
- relative viability (NCI-H2087; first compound 0.8 µM): 0.297
- relative viability (NCI-H2087; first compound 2.53 µM): 0.268
- relative viability (NCI-H1651; first compound 0.08 µM): 0.521
- relative viability (NCI-H1651; first compound 0.253 µM): 0.522
- relative viability (NCI-H1651; first compound 0.8 µM): 0.48
- relative viability (NCI-H1651; first compound 2.53 µM): 0.492
- relative viability (EMC-BAC-2; first compound 0.08 µM): 0.532
- relative viability (EMC-BAC-2; first compound 0.8 µM): 0.546
- relative viability (EMC-BAC-2; first compound 2.53 µM): 0.503
- relative viability (NCI-H2085; first compound 0.08 µM): 0.47
- relative viability (NCI-H2085; first compound 0.253 µM): 0.466
- relative viability (NCI-H2085; first compound 0.8 µM): 0.496
- relative viability (NCI-H2085; first compound 2.53 µM): 0.47
- relative viability (NCI-H1793; first compound 0.08 µM): 0.362
- relative viability (NCI-H1793; first compound 0.253 µM): 0.378
- relative viability (NCI-H1793; first compound 0.8 µM): 0.287
- relative viability (NCI-H1793; first compound 2.53 µM): 0.296
- relative viability (LCLC-103H; first compound 0.08 µM): 0.459
- relative viability (LCLC-103H; first compound 0.253 µM): 0.477
- relative viability (LCLC-103H; first compound 0.8 µM): 0.449
- relative viability (LCLC-103H; first compound 2.53 µM): 0.442
- relative viability (SK-MES-1; first compound 0.08 µM): 0.309
- relative viability (SK-MES-1; first compound 0.253 µM): 0.284
- relative viability (SK-MES-1; first compound 0.8 µM): 0.35
- relative viability (SK-MES-1; first compound 2.53 µM): 0.362
- relative viability (NCI-H650; first compound 0.08 µM): 0.339
- relative viability (NCI-H650; first compound 0.253 µM): 0.371
- relative viability (NCI-H650; first compound 0.8 µM): 0.351
- relative viability (NCI-H650; first compound 2.53 µM): 0.355
- relative viability (NCI-H1944; first compound 0.08 µM): 0.366
- relative viability (NCI-H1944; first compound 0.253 µM): 0.301
- relative viability (NCI-H1944; first compound 0.8 µM): 0.333
- relative viability (NCI-H1944; first compound 2.53 µM): 0.39
- relative viability (ChaGo-K-1; first compound 0.08 µM): 0.965
- relative viability (ChaGo-K-1; first compound 0.253 µM): 0.945
- relative viability (ChaGo-K-1; first compound 0.8 µM): 0.947
- relative viability (ChaGo-K-1; first compound 2.53 µM): 0.972
- relative viability (LU99A; first compound 0.08 µM): 0.394
- relative viability (LU99A; first compound 0.253 µM): 0.442
- relative viability (LU99A; first compound 0.8 µM): 0.462
- relative viability (LU99A; first compound 2.53 µM): 0.402
- relative viability (HCC-44; first compound 0.08 µM): 0.98
- relative viability (HCC-44; first compound 0.253 µM): 0.827
- relative viability (HCC-44; first compound 0.8 µM): 0.949
- relative viability (HCC-44; first compound 2.53 µM): 1
- relative viability (NCI-H2023; first compound 0.08 µM): 0.409
- relative viability (NCI-H2023; first compound 0.8 µM): 0.355
- relative viability (NCI-H2023; first compound 2.53 µM): 0.356
- relative viability (COR-L23; first compound 0.08 µM): 0.338
- relative viability (COR-L23; first compound 0.253 µM): 0.225
- relative viability (COR-L23; first compound 0.8 µM): 0.366
- relative viability (COR-L23; first compound 2.53 µM): 0.322
